Measured values from patent US8710233B2 (Gruenenthal GmbH, priority 2005, dated 2014).
Like-named read-outs stand apart in the source and are kept apart here.

Columns and labels:
Format in all cases: cell-based
[1] = biological target: T1, vanilloid receptor (VR1) (Homo sapiens, UniProt Q8NER1); assay: FLIPR Ca2+ influx assay on CHO K1 cells transfected with the VR1 gene (pharmacological method II); conditions: for inhibition in percent, Ki (human) Cap.: @ 10 μM
T1 construct: expressed in transfected cells; host or cells: CHO K1 cells (ECACC), stably transfected
T1 sequence (Q8NER1 whole entry): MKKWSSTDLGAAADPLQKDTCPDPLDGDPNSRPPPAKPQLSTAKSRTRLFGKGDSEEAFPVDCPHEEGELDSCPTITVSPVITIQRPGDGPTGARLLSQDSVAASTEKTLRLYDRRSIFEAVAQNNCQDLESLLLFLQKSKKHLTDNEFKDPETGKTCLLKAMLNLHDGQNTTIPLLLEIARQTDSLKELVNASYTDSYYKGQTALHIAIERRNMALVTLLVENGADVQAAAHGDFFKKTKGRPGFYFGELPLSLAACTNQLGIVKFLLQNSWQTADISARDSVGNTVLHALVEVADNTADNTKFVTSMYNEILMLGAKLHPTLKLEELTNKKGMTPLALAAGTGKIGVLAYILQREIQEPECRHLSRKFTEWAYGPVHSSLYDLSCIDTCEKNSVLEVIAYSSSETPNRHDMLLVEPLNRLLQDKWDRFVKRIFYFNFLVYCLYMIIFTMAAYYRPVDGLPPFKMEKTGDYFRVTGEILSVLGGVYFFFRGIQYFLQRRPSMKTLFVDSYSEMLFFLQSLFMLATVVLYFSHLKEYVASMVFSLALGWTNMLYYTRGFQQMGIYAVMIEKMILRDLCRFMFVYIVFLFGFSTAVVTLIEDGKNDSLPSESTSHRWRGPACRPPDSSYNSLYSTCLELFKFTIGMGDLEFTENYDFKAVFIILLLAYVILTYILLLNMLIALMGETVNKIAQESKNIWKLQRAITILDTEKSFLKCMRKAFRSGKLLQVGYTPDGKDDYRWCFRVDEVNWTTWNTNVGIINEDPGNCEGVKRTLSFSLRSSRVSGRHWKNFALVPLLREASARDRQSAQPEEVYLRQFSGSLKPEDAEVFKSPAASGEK

[2] = biological target: VR1/TRPV1 receptor (Homo sapiens, UniProt Q8NER1); assay: IC50 (human) after pH stimulus
Sequence of VR1/TRPV1 receptor (Q8NER1 whole entry): as above

[3] = biological target: T2, vanilloid receptor 1 (VR1/TRPV1) of the rat species (Rattus norvegicus, UniProt O35433); assay: FLIPR Ca2+ influx assay on rat dorsal root ganglia cells (pharmacological method I); conditions: for inhibition in percent, Ki (rat) Cap.: @ 10 μM
T2 construct: The spinal column is removed from decapitated rats; from tissue; host or cells: primary cells dissociated from rat dorsal root ganglia
T2 sequence (O35433 whole entry): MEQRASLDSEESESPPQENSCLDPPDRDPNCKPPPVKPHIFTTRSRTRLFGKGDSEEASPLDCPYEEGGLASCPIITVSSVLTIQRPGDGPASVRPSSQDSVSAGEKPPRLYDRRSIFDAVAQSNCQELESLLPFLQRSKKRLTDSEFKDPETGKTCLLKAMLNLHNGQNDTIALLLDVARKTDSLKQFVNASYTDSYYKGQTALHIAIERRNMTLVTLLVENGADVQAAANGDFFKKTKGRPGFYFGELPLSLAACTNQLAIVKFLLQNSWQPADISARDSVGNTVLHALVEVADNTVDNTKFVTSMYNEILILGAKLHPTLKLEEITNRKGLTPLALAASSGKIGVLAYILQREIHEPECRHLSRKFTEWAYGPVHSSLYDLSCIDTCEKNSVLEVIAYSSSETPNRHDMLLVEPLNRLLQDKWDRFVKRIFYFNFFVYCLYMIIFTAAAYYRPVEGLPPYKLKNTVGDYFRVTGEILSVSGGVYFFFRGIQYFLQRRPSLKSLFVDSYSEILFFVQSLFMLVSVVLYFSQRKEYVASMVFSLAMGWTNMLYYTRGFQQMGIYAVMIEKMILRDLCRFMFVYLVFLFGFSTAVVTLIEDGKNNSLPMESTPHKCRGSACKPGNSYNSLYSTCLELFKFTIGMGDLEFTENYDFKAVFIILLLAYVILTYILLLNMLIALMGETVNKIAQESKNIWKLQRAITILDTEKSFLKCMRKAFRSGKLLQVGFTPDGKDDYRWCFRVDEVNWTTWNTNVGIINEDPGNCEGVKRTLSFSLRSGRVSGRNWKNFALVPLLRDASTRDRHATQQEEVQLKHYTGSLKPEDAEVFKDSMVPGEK
Description: I. Functional Investigation of the Vanilloid Receptor 1 (VR1/TRPV1 Receptor)
The agonistic or antagonistic action of the substances to be investigated on the vanilloid receptor 1 (VR1/TRPV1) of the rat species may be determined by the following assay. According to this assay, the influx of Ca^2+ through the receptor channel is quantified with the assistance of a Ca^2+-sensitive dye (type Fluo-4, Molecular Probes Europe BV, Leiden, Netherlands) in a Fluorescent Imaging Plate Reader (FLIPR, Molecular Devices, Sunnyvale, USA).
The spinal column is removed from decapitated rats and is placed directly in cold, i.e. located in an ice bath, HBSS buffer (Hank's buffered saline solution, Gibco Invitrogen GmbH, Karlsruhe, Germany) combined with 1 vol. % (percent by volume) of an AA solution (antibiotic/antimycotic solution, PAA, Pasching, Austria). The spinal column is cut open longitudinally and removed together with fasciae from the spinal canal. The dorsal root ganglia (DRGs) are then removed and in turn stored in cold HBSS buffer combined with 1 vol. % of an AA solution. The DRGs, from which all traces of blood and spinal nerves have been removed, are in each case transferred into 500 μL of cold collagenase type 2 (PAA, Pasching, Austria) and incubated for 35 minutes at 37° C. […] Once incubation is complete, the enzyme solution is carefully removed by pipette and the DRGs, which are left behind, are in each case combined with 500 μL of complete medium.
The DRGs are in each case repeatedly suspended, drawn by means of a syringe through […], no. 12 and no. 16 cannulas and transferred into 50 mL Falcon microtubes and each tube is made up to 15 mL with complete medium. The contents of each Falcon microtube are in each case filtered through a 70 μm Falcon filter insert and centrifuged for 10 minutes at 1200 revolutions and room temperature. The resultant pellet is in each case resuspended in 250 μL of complete medium and the cell count determined.
The number of cells in the suspension is adjusted to 3×10^5 per mL and a 150 μL portion of this suspension is in each case placed in a well of the cell culture plate which has been coated as described above.
The cells are then loaded with 2 μM Fluo-4 and 0.01 vol. % Pluronic F127 (Molecular Probes Europe BV, Leiden, Netherlands) in HBSS buffer (Hank's buffered saline solution, Gibco Invitrogen GmbH, Karlsruhe, Germany) for 30 min at 37° C., washed 3× with HBSS buffer and, after a further 15 minutes' incubation at room temperature, used for Ca^2+ measurement in the FLIPR assay. […] Quantification proceeds by measuring the highest fluorescence intensity (FC, fluorescence counts) over time.
The FLIPR protocol comprises 2 additions of substance. The compounds to be tested (10 μM) are firstly pipetted onto the cells and Ca^2+ influx is compared with the control (capsaicin 10 μM). This provides the percentage activation relative to the Ca^2+ signal after addition of 10 μM of capsaicin (CP). After 5 minutes' incubation, 100 nM of capsaicin are added and the influx of Ca^2+ is again determined.
Desensitising agonists and antagonists result in suppression of Ca^2+ influx. The percentage inhibition in comparison with the maximum achievable inhibition with 10 μM capsaicin is calculated.
Triplicate determinations (n═3) are performed and these are repeated in at least 3 independent experiments […].

[4] = Table 2, displacement of capsaicin (100 nM), Cheng-Prusoff, read-out: Ki (human)
[5] = Table 2, displacement of capsaicin (100 nM), Cheng-Prusoff, read-out: Ki (rat)
[6] = table 4, capsaicin, read-out: Ki (human) Cap.
[7] = table 4, capsaicin, read-out: Ki (rat) Cap.
[8] = @ 1 μM, ne = no effect, read-out: inhibition in percent, IC50 (human) after pH stimulus

Compound | Ki [1, 6] | IC50 ([2]; table 4) | Ki [3, 7] | further results
C[C@H](C(=O)NCc1ccc(C(F)(F)F)nc1N1CCOCC1)c1ccc(NS(C)(=O)=O)c(F)c1 [Example 72, (S)-2-(3-Fluor-4-(methylsulfonamido)phenyl)-N-((2-morpholino-6-(trifluoromethyl)pyridin-3-yl)methyl)propanamide] | – | – | – | Ki [1, 4]: 32.6 nM; IC50 ([2]; Table 2): 1660 nM; Ki [3, 5]: 124 nM
CC(C(=O)NCc1ccc(C(F)(F)F)nc1N1CCN(Cc2ccccc2)CC1)c1ccc(NS(C)(=O)=O)c(F)c1 (stereo not drawn) [Example 73, N-((2-(4-benzylpiperazin-1-yl)-6-(trifluoromethyl)pyridin-3-yl)methyl)-2-(3-fluoro-4-(methylsulfonamido)phenyl)propanamide] | – | – | – | Ki [1, 4]: 8.8 nM; IC50 ([2]; Table 2): 634 nM; Ki [3, 5]: 6.6 nM
CC(C(=O)NCc1ccc(C(F)(F)F)nc1N1CCNCC1)c1ccc(NS(C)(=O)=O)c(F)c1 (stereo not drawn) [Example 74] | – | – | – | inhibition in percent, Ki (human) Cap. [1]: 71% @ 10 μM; inhibition in percent, IC50 (human) after pH stimulus ([2]; @ 10 μM): 35% @ 10 μM; inhibition in percent, Ki (rat) Cap. [3]: 70% @ 10 μM
CC(C(=O)NCc1ccc(C(F)(F)F)cc1Cl)c1ccc(NS(C)(=O)=O)c(F)c1 (stereo not drawn) [Example 75, N-(2-chloro-4-(trifluoromethyl)benzyl)-2-(3-fluoro-4-(methylsulfonamido)phenyl)propanamide] | – | – | – | Ki [1, 4]: 4 nM; IC50 ([2]; Table 2): 1210 nM; Ki [3, 5]: 12.9 nM
CC(C(=O)NCc1ncc(C(F)(F)F)cc1Cl)c1ccc(NS(C)(=O)=O)c(F)c1 (stereo not drawn) [Example 77] | – | – | – | inhibition in percent, Ki (human) Cap. [1]: 21% @ 10 μM; inhibition in percent, IC50 (human) after pH stimulus ([2]; @ 1 μM, ne = no effect): ne @ 1 μM; inhibition in percent, Ki (rat) Cap. [3]: 57% @ 10 μM
CC1CC(C)CN(c2nc(C(F)(F)F)ccc2CNC(=O)C(C)c2ccc(NS(C)(=O)=O)c(F)c2)C1 (stereo not drawn) [Example 79, 2-(3-fluoro-4-methylsulfonamido-phenyl)-N-(2-3,5 dimethylpiperidin-1-yl-6-trifluoromethyl-pyridin-3-ylmethyl)-propionamide] | 0.7 nM | 25.6 nM | 0.8 nM | –
CC(C(=O)NCc1ccc(C(F)(F)F)nc1N(C)C)c1ccc(NS(C)(=O)=O)c(F)c1 (stereo not drawn) [Example 85, N-(2-dimethylamino-6-trifluoromethyl-pyridin-3-ylmethyl)-2-(3-fluoro-4-methylsulfonamido-phenyl)-propionamide] | 19.1 nM | 2390 nM | 67.9 nM | –
CC(C)COc1nc(C(F)(F)F)ccc1CNC(=O)C(C)c1ccc(NS(C)(=O)=O)c(F)c1 (stereo not drawn) [Example 95, 2-(3-fluoro-4-methylsulfonamido-phenyl)-N-(2-isobutoxy-6-trifluoromethyl-pyridin-3-ylmethyl)-propionamide] | 0.5 nM | 52.6 nM | 0.8 nM | –
CC(C(=O)NCc1ccc(C(F)(F)F)nc1OCC1CCC1)c1ccc(NS(C)(=O)=O)c(F)c1 (stereo not drawn) [Example 101, N-(2-cyclobutylmethoxy-6-trifluoromethyl-pyridin-3-ylmethyl)-2-(3-fluoro-4-methylsulfonamido-phenyl)-propionamide] | 0.3 nM | 40.5 nM | – | Ki ([3]; Ki (rat) Cap., table 4, capsaicin): 1 nM
CC(C(=O)NCc1ccc(C(F)(F)F)nc1N1CCCC1)c1ccc(NS(C)(=O)=O)c(Cl)c1 (stereo not drawn) [Example 102, 2-(3-chloro-4-methylsulfonamido-phenyl)-N-(2-pyrrolidin-1-yl-6 trifluoromethyl-pyridin-3-ylmethyl)-propionamide] | 4.2 nM | – | 7.4 nM | inhibition at 10 µM ([2]; @ 10 μM, read-out: inhibition in percent, IC50 (human) after pH stimulus): 18%
CC(C(=O)NCc1ccc(C(F)(F)F)nc1N1CCN(c2ccccc2)CC1)c1ccc(NS(C)(=O)=O)c(F)c1 (stereo not drawn) [Example 109, 2-(3-fluoro-4-methylsulfonamido-phenyl)-N-[2-(4-phenyl-piperazin-1-yl)-6-trifluoromethyl-pyridin-3-ylmethyl]-propionamide] | 0.7 nM | 30.7 nM | 0.6 nM | –
CCCOc1nc(C(F)(F)F)ccc1CNC(=O)C(C)c1ccc(NS(C)(=O)=O)c(F)c1 (stereo not drawn) [Example 111, 2-(3-fluoro-4-methylsulfonamido-phenyl)-N-(2-propoxy-6-trifluoromethyl-pyridin-3-ylmethyl)-propionamide] | 0.9 nM | 90.1 nM | 3.5 nM | –
CC(C(=O)NCc1ccc(C(F)(F)F)cc1F)c1ccc(NS(C)(=O)=O)c(F)c1 (stereo not drawn) [Example 114, 2-(3-fluoro-4-methylsulfonamido-phenyl)-N-(2-fluoro-4-trifluoromethyl-benzyl)-propionamide] | 68.7 nM | 2360 nM | 28.1 nM | –
CC(C)COc1cc(C(C)(C)C)ccc1CNC(=O)C(C)c1ccc(NS(C)(=O)=O)c(F)c1 (stereo not drawn) [Example 133, N-(4-tert-butyl-2-isobutoxy-benzyl)-2-(3-fluoro-4-methylsulfonamido-phenyl)-propionamide] | 2.1 nM | – | 0.7 nM | inhibition at 1 µM [2, 8]: 62%

Second part, led by results:

Ki [1, 6] | IC50 ([2]; table 4) | Ki [3, 7] | Compound | further results
15.8 nM | 203 nM | 10.9 nM | CC(C(=O)NCc1ccc(C(F)(F)F)nc1NCc1ccccc1)c1ccc(NS(C)(=O)=O)c(F)c1 (stereo not drawn) [Example 115, N-(2-benzylamino-6-trifluoromethyl-pyridin-3-ylmethyl)-2-(3-fluoro-4-methylsulfonamido-phenyl)-propionamide] | –
0.2 nM | 7.6 nM | 0.2 nM | CC(C(=O)NCc1ccc(C(F)(F)F)nc1-c1ccc(F)c(Cl)c1)c1ccc(NS(C)(=O)=O)c(F)c1 (stereo not drawn) [Example 118] | –
0.7 nM | – | 0.4 nM | C[C@H](C(=O)NCc1ccc(C(F)(F)F)nc1-c1ccc(F)c(Cl)c1)c1ccc(NS(C)(=O)=O)c(F)c1 [Example 120, (S)-N-[2-(3-chloro-4-fluoro-phenyl)-6-trifluoromethyl-pyridin-3-ylmethyl]-2-(3-fluoro-4-methylsulfonamido-phenyl)-propionamide] | inhibition at 1 µM [2, 8]: 51%
0.7 nM | 27.8 nM | 1 nM | CC(C(=O)NCc1ccc(C(F)(F)F)nc1N1CCCCCCC1)c1ccc(NS(C)(=O)=O)c(F)c1 (stereo not drawn) [Example 128, N-(2-azocan-1-yl-6-trifluoromethyl-pyridin-3-ylmethyl)-2-(3-fluoro-4-methylsulfonamido-phenyl)-propionamide] | –
146 nM | – | 335 nM | CC(C(=O)NCc1ccc(C(F)(F)F)nc1N1CCN(C)CC1)c1ccc(NS(C)(=O)=O)c(F)c1 (stereo not drawn) [Example 134, 2-(3-fluoro-4-methylsulfonamido-phenyl)-N-[2-(4-methyl-piperazin-1-yl)-6-trifluoromethyl-pyridin-3-ylmethyl]-propionamide] | inhibition at 25 µM ([2]; @ 25 μM, read-out: inhibition in percent, IC50 (human) after pH stimulus): 69%
39.3 nM | 1160 nM | 48.9 nM | Cc1ccc(Nc2nc(C(F)(F)F)ccc2CNC(=O)C(C)c2ccc(NS(C)(=O)=O)c(F)c2)cc1C (stereo not drawn) [Example 135, N-[2-(3,4-dimethyl-phenylamino)-6-trifluoromethyl-pyridin-3-ylmethyl]-2-(3-fluoro-4-methylsulfonamido-phenyl)-propionamide] | –
1 nM | 8.9 nM | 1.2 nM | CCCCCc1nc(C(F)(F)F)ccc1CNC(=O)C(C)c1ccc(NS(C)(=O)=O)c(F)c1 (stereo not drawn) [Example 142, 2-(3-fluoro-4-methylsulfonamido-phenyl)-N-(2-pentyl-6-trifluoromethyl-pyridin-3-ylmethyl)-propionamide] | –
